Columns and labels:
MEK1 = MEK1 (Homo sapiens (Human), UniProt Q02750); test: MEK Inhibition Assay-2 (Z′-LYTE biochemical assay); settings: Z′-LYTE assay of Example 39; read-out: IC50 against MEK1
Protocol: MEK1 inhibitory activity of compounds were tested using the following procedure (protocol available at thermofisher.com/content/dam/LifeTech/migration/files/drug-discovery/pdfs.par.60256.file.dat/20130430%20ssbk %20customer %20protocol %20and %20assa y %20conditions.pdf). The Z′-LYTE biochemical assay (ThermoFisher) employs a fluorescence-based, coupled-enzyme format and is based on the differential sensitivity of phosphorylated and non-phosphorylated peptides to proteolytic cleavage.
Test compounds in 100% DMSO were screened in 1% DMSO (final) in the well. For 10 point titrations, 3-fold serial dilutions are conducted from the starting concentration of 30 μM.
After the 1 hour incubation, 5 μL of a 1:1024 dilution of Development Reagent A (available from Invitrogen, catalog no. PV3295) was added.
ATP solutions were diluted to a 4× working concentration in Kinase Buffer (50 mM HEPES pH 7.5, 0.01% BRIJ-35, 10 mM MgCl2, 1 mM EGTA). ATP Km apparent was previously determined using a Z′-LYTE assay. The Development Reagent was diluted in Development Buffer (available from Invitrogen, catalog no. P3127).
Assay Protocol: 2.5 μL of 4× test compound or 100 nL of 100× Test Compound plus 2.4 μL Kinase Buffer, 5 μL of the 2× Peptide/Kinase Mixture, 2.5 μL of 4×ATP Solution were added to the plates and placed on a shake plate for 30-seconds. The kinase reaction was allowed to proceed for 60-minute at room temperature, before 5 μL of Development Reagent Solution was added, and the mixture agitated for 30-seconds on a shake plate. The mixture was incubated for 60-minute at room temperature. Fluorescence was measured using a plate reader and the data were analyzed.
This control yielded 100% cleaved peptide in the Development Reaction. The 100% Phosphorylation Control, which consisted of a synthetically phosphorylated peptide of the same sequence as the peptide substrate, was designed to allow for the calculation of percent phosphorylation. This control yielded a very low percentage of cleaved peptide in the Development Reaction. The 0% Phosphorylation and 100% Phosphorylation Controls allow for the calculation of the percent phosphorylation achieved in a specific reaction well.
The minimum emission ratio in a screen was established by the 0% Inhibition Control, which contained active kinase. This control was designed to produce a 10-50% phosphorylated peptide in the Kinase Reaction. Cascade assays may produce up to 70% phosphorylated peptide.
A known inhibitor control standard curve, 10 point titration, was run for each individual kinase on the same plate as the kinase to ensure the kinase was inhibited within an expected IC50 range previously determined.
The following controls are prepared for each concentration of Test Compound assayed. […] The expected value for a non-interfering compound should be 100%. Any value outside of 90% to 110% was flagged. […] The expected value for a non-fluorescence compound should be 0%. Any value>20% was flagged.
The data in Table A was calculated. XLfit from IDBS was used. The dose response curve was curve fit to model number 205 (sigmoidal dose-response model).
Table 3 lists the MEK1 inhibition assay results of selected compounds according to the above procedure.

[1] = Liver S9 half-life stability assay; type: in vitro ADME; settings: human, liver S9 fraction, pH 7.4; 1 μM test compound, 2 mg/mL liver protein, 1 mM NADPH; read-out: Assay 4: liver S9 half-life
Protocol: Compounds can be assessed for metabolic stability in human skin by assessing their rate of disappearance from human S9 skin fraction. Similarly, compounds can be assessed for metabolic stability in human liver by assessing their rate of disappearance from human S9 liver fraction. The protocol below is used to assess the difference between skin and hepatic metabolism.
The assay was carried out in 96-well microtiter plates at 37° C. Reaction mixtures (25 μL) contained a final concentration of 1 μM test compound, 2 mg/mL liver or skin protein, and 1 mM NADPH in buffer (100 mM potassium phosphate, pH 7.4 buffer with 1 mM EDTA, 3 mM MgCl2). At each of the time points (0, 15, 30, and 60 minutes), 150 μL of quench solution (100% acetonitrile with 0.1% formic acid) with internal standard was transferred to each well. Besides the zero minute controls, mixtures containing the same components except the NADPH were also prepared as the negative control. Verapamil or testosterone was included as a positive control to verify assay performance. Plates were sealed and centrifuged at 4° C. for 15 minutes at 4000 rpm. The supernatant was transferred to fresh plates for LC/MS/MS analysis.
All samples were analyzed on LC/MS/MS using an AB Sciex API 4000 instrument, coupled to a Shimadzu LC-20AD LC Pump system. Analytical samples were separated using a Waters Atlantis T3 dC18 reverse phase HPLC column (20 mm×2.1 mm) at a flow rate of 0.5 mL/min. The mobile phase consisted of 0.1% formic acid in water (solvent A) and 0.1% formic acid in 100% acetonitrile (solvent B).
The extent of metabolism was calculated as the disappearance of the test compound, compared to the 0-min control reaction incubations. Initial rates were calculated for the compound concentration and used to determine t1/2 values and subsequently, the intrinsic clearance, CLint=(0.693) (1/t1/2 (min)) (mL incubation/mg of S9 protein).
Assay 4 is the liver S9 half-life stability assay as described in Example 42. A4 indicates a half life of greater than 50 min and less than or equal to 200 min and B4 indicates a half life of less than or equal to 50 minutes.

MEK1, sequence (Q02750 whole entry): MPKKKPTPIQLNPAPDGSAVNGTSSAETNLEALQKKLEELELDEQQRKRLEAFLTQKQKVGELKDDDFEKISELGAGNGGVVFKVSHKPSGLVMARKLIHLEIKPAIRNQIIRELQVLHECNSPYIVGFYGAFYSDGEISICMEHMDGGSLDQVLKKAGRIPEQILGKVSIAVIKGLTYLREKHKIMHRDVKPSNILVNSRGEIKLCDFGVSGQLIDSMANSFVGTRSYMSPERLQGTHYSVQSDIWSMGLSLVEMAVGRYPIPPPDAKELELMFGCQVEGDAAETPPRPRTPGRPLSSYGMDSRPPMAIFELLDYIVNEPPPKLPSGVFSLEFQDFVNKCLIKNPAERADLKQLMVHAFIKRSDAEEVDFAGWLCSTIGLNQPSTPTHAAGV

`N#Cc1ccc(C(=O)NOCCO)c(Nc2ccc(I)cc2F)c1` [Compound 1.010] gave an IC50 (MEK1) of at most 150 nM and a half-life at 1 μM [1] of 50 to 200 min.
In the case of `N#Cc1ccc(C(=O)NOCCO)c(Nc2ccc(I)cc2F)c1F` [Compound 1.030, 4-cyano-3-fluoro-2-((2-fluoro-4-iodophenyl)amino)-N-(2-hydroxyethoxy) benzamide], the IC50 (MEK1) is reported as at most 150 nM and the half-life at 1 μM [1] is reported as 50 to 200 min.
Compound `N#Cc1ccc(C(=O)NOCC2CC2)c(Nc2ccc(I)cc2F)c1F` [Compound 1.031] has an IC50 (MEK1) of at most 150 nM and a half-life at 1 μM [1] of at most 50 min.

— patent publication US11572344B2, “Cyanoaryl-aniline compounds for treatment of dermal disorders” (NFlection Therapeutics, Inc., priority 2018, dated 2023)
